From patent US20260317337A1, “HETEROCYCLIC COMPOUNDS FOR IMAGING AGGREGATED ALPHA SYNUCLEIN IN THE SYNUCLEINOPATHIES” (THE TRUSTEES OF THE UNIVERSITY OF PENNSYLVANIA, priority 2023, published 2026)
Read-outs that look alike come from different tables or passages of the source.

How the values were obtained:
α-synuclein fibrils = α-synuclein fibrils (Homo sapiens, UniProt P37840); assay: Competitive radioligand binding with [^3H]BF2846 on α-synuclein fibrils; details: [^3H]BF2846, α-synuclein fibrils; mean + Sd, n = 3; read-out: α-syn Ki
Experimental: Competition binding assays were performed with [^3H]BF2846 and [^3H]PIB to measure affinity to Asyn and Aβ. […]

aggregated tau = aggregated tau (Homo sapiens, UniProt P10636); assay: Blocking of the ^3H-labelled compound with tau ligands, homogenate binding and autoradiography; details: AD, CBD and PSP
Sequence of aggregated tau (P10636 whole entry): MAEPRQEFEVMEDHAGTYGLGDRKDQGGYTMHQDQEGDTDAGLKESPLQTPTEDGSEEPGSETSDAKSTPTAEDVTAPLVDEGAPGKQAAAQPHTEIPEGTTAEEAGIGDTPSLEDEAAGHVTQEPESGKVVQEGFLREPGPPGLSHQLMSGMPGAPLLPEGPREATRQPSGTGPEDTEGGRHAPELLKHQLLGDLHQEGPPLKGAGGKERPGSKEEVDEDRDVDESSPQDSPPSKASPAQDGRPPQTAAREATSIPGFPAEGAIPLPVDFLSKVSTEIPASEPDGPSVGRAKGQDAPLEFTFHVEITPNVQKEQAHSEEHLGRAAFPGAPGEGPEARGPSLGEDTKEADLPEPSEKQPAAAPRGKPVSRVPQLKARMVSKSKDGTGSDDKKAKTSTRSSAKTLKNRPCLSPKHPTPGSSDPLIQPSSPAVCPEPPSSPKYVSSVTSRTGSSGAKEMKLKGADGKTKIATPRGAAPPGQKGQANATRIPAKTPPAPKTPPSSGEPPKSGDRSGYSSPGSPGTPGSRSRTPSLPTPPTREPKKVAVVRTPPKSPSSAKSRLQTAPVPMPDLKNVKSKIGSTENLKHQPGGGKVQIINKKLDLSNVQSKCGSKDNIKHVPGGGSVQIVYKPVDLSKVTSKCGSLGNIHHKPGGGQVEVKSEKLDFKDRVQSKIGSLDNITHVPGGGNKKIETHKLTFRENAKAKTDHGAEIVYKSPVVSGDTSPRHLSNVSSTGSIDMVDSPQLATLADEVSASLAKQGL

alpha synuclein = biological target: T1, alpha synuclein (Homo sapiens, UniProt P37840); assay: Autoradiography in postmortem brain tissue sections; format: binding; details: PD, MSA and control brain sections
T1 construct: autoradiography
Experimental: FIGS. 1A and 1C are nuclear emulsion autoradiography images of a postmortem brain samples (A—[…] PD brain; C—MSA brain) after administration of ^3H-Compound 103. FIGS. 1B and 1D are the same samples from FIGS. 1A and 1C after incubating sequentially with anti-phospho-α-syn (S129) antibody (p-syn/81A, BioLegend) and Alexa Fluor 488 goat anti-mouse secondary antibody to immunostain LBs and LNs. FIGS. 1E and 1G are nuclear emulsion autoradiography images of postmortem brain samples of (E—PD brain; G—[…] MSA brain) with ^3H-Compound 43. FIGS. 1F and 1H are the same samples from FIGS. 1E and 1G after incubating sequentially with anti-phospho-α-syn (S129) antibody (p-syn/81A, BioLegend) and Alexa Fluor 488 goat anti-mouse secondary antibody to immunostain LBs and LNs.
FIG. 3 are autoradiography images in tissue sections of ^3H-Compound 103 and ^3H-Compound 43 in PD, MSA and control brain. Neuropathological scores for Abeta, tau and Asyn are shown for each tissue section.
Kd and Bmax values of [^3H]-Compound 113 were obtained from a panel of postmortem brain samples (e.g., PD, MSA, corticobasal degeneration (CBD), progressive supranuclear palsy (PSP), Alzheimer's disease (AD)). Nuclear emulsion autoradiography identified the distribution of [^3H]-Compound 113 on PD and MSA tissues for aggregated Asyn, which was confirmed by antibody staining. […]

[1] = Dynamic PET imaging in non-human primate; format: in vivo
Experimental: FIG. 2 are dynamic whole body PET images of ^11C-compound 103 in a non-human primate 1-90 minutes after administration ^11C-compound 103.
FIG. 6 are dynamic PET images (top) and time-activity curves for whole brain and different brain regions (bottom) of ^11C-compound 103 in a non-human primate and show the high uptake and rapid washout of [^11C]-compound 103.
FIG. 7 are dynamic PET images (top) and time-activity curves (bottom) of ^11C-compound 43 in a non-human primate and show the high uptake and rapid washout of [^11C]-compound 43.
Kd and Bmax values of [^3H]-Compound 113 were obtained from a panel of postmortem brain samples (e.g., PD, MSA, corticobasal degeneration (CBD), progressive supranuclear palsy (PSP), Alzheimer's disease (AD)). Nuclear emulsion autoradiography identified the distribution of [^3H]-Compound 113 on PD and MSA tissues for aggregated Asyn, which was confirmed by antibody staining. Dynamic whole body PET images of [^11C]-Compound 113 in non-human primate were obtained over 90 min. […] The non-human primate PET study confirmed that [^11C]-Compound 113 had good brain uptake (SUV ~1.6) and rapid washout (2:60 min ratio ~3.0).

Compound: Nc1nc(N2CCN(c3ccccn3)CC2)ncc1C(=O)Nc1ccc(OC[C@H](O)CF)cc1 [Compound 135, (S)-4-amino-N-(4-(3-fluoro-2-hydroxypropoxy)phenyl)-2-(4-(pyridin-2-yl)piperazin-1-yl)pyrimidine-5-carboxamide]
- Ki (α-synuclein fibrils): 16.9 nM

Compound: Nc1nc(N2CCN(c3ccccn3)CC2)ncc1C(=O)Nc1ccc(OC[C@@H](O)CF)cc1 [Compound 136, (R)-4-amino-N-(4-(3-fluoro-2-hydroxypropoxy)phenyl)-2-(4-(pyridin-2-yl)piperazin-1-yl)pyrimidine-5-carboxamide]
- Ki (α-synuclein fibrils): 24.8 nM

Compound: Fc1cc(-c2ccc3c(n2)[nH]c2ccncc23)ccn1 [PI-2620]
- blocking of [^3H]-Compound 113 binding by tau ligands (aggregated tau): could not be blocked

Compound: CNc1ccc(/C=C/C=C/c2nc3ccc(OCC(O)CF)cc3s2)cn1 (centres unmarked) [PM-PBB3]
- blocking of [^3H]-Compound 113 binding by tau ligands (aggregated tau): could not be blocked

Compound: COc1ccc(NC(=O)c2cnc(Cl)nc2)cc1 [[^3H]-Compound 43]
- ability to image alpha synuclein in human postmortem samples (alpha synuclein): PD and not MSA and age-matched control

Compound: COc1ccc(C(=O)Nc2ccc(N3C4CCC3CN(c3ccccn3)C4)cc2)cc1 [[^3H]-Compound 103, 4-methoxy-N-(4-(3-(pyridin-2-yl)-3,8-diazabicyclo[3.2.1]octan-8-yl)phenyl)benzamide]
- ability to image alpha synuclein in human postmortem samples (alpha synuclein): MSA and not PD and age-matched control

Compound: COc1ccc(C(=O)Nc2ccc(N3C4CCC3CN(c3ccccn3)C4)cc2)cc1 [[^11C]-Compound 103, 4-methoxy-N-(4-(3-(pyridin-2-yl)-3,8-diazabicyclo[3.2.1]octan-8-yl)phenyl)benzamide]
- uptake (words) [1]: high brain uptake
- washout [1]: rapid washout
- uptake (words) ([1]; listed as [^11C]-compound 103): high uptake

Compound: COc1ccc(NC(=O)c2cnc(Cl)nc2)cc1 [[^11C]-compound 43]
- uptake (words) [1]: high uptake
- washout [1]: rapid washout
